Source: patent US8084459B2, “Substituted quinazolinones for treating neurological conditions” (Prana Biotechnology Ltd, priority 2004, dated 2011)
pEC50, pIC50: −log10 of the molar value. “And” between values parts separate entries of the source, which are not always exact repeats. Equal entries are not always repeated.

Key:
[1] = Assay 16 mouse plasma levels of test compounds; format: in vivo; conditions: for Conc. in mouse plasma: listed as PB 1076, 30 mg/kg
Experimental: Assay 16. Determination of Mouse Plasma Levels of Test Compounds PB 1075
(§1) Oral administration of PB 1075 at 30 mg/kg, as a suspension in Na-Carboxymethyl Cellulose (CMC) was administered by oral gavage to four mice. Two mice were sacrificed 30 minutes after administration and two mice were sacrificed 60 minutes after administration. Blood was obtained by cardiac puncture and plasma separated by centrifugation.
The concentration of PB 1075 was determined by LC/MS using the triple quadrupole instrument. The mobile phase consisted of an acetonitrile (ACN)/water gradient (containing 0.05% Formic acid) and the column was a Phenomenex Lunea 5 um C8 (50×2 mm) column.
The supplied acute toxicity mouse plasma samples were directly injected following a protein precipitation with ACN. The analytical method in plasma was linear in the range of 10 to 10,000 ng/ml (R^2=0.994). Recovery of PB 1075 from plasma was ˜100%.
as §1, with “1076” for “1075”
The concentration of PB 1076 was determined by LC/MS using the triple quadrupole instrument. The mobile phase consisted of an acetonitrile (ACN)/water gradient (containing 0.05% Formic acid) and the column was a Phenomenex Luna 5 μM C8 (50×2 mm) column.
The mouse plasma samples were directly injected following a protein precipitation with ACN. The analytical method in plasma was linear in the range of 500 to 10,000 ng/ml (R^2=0.999). Recovery of PB 1076 from plasma was ˜85%.
as §1, with “1077” for “1075”
The concentration of PB 1077 was determined by LC/MS using the triple quadrupole instrument. The mobile phase consisted of an acetonitrile (ACN)/water gradient (containing 0.05% Formic acid) and the column was a Phenomenex Luna 5 μM C8 (50×2 mm) column.
The mouse plasma samples were directly injected following a protein precipitation with ACN. The analytical method in plasma was linear in the range of 5 to 5,000 ng/ml (R^2=0.999). Recovery of PB 1077 from plasma was ˜92%.

Aβ 1-42 = target: T1, Aβ 1-42 (Homo sapiens, UniProt P05067); experiment: Assay 1 Fluorometric H2O2 assay (peroxide); format: biochemical; conditions: inhibition of H2O2 generation by Aβ with copper
T1 construct: The reaction solutions contained Aβ 1-42 at concentrations
T1 sequence (P05067 672-713 limits assumed): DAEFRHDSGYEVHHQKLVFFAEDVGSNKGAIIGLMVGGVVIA
Experimental: Assay 1. Fluorometric H2O2 Assay
A fluorometric assay was used to test the ability of a test compound to inhibit hydrogen peroxide generation by Aβ in the presence of copper based on dichlorofluoroscein diacetate (DCF; Molecular Probes, Eugene Oreg.). The DCF solution (5 mM) in 100% dimethyl sulphoxide (previously purged with argon for 1 hr at 20° C.) was deacetylated in the presence of 0.025M NaOH for 30 min and neutralised at pH 7.4 to a final concentration of 1 mM. Horseradish peroxidase (HRP) stock solution was prepared to 1 μM at pH 7.4. The reactions were carried out in PBS, pH 7.4 in a 96 well plate (total volume=250 μl/well). The reaction solutions contained Aβ 1-42 at concentrations in the range of 50 nM to 1 μM, copper-glycine chelate (Cu-Gly), was prepared by adding CuCl2 to glycine in the ratio of 1:6 and added to the Aβ in the proportion 2Cu-Gly:1Aβ), reducing agents including dopamine (5 μM) or ascorbic acid, deacetylated DCF 100 μM, and HRP, 0.1 μM. 1-10 μM EDTA or another chelator may also be present as a control for free copper, but was not required for the assay to function. The reaction mixture was incubated at 37 C for 60 min. Catalase (4000 units/ml) and H2O2 (1-2.5 μM) standards in PBS pH 7.4 may be included as positive controls. Fluorescence was recorded using a plate reader with excitation and emission filters at […] respectively. H2O2 concentration may be established by comparing fluorescence with the H2O2 standards. Inhibition of Aβ H2O2 production was assayed by including a given concentration of test compound(s) in the test wells.

[2] = tested on: soluble and insoluble Aβ in the brain; experiment: Assay 11 effect on Aβ deposits in transgenic animals (soluble and insoluble Aβ, Western blot); format: in vivo, APP2576 transgenic mouse; conditions: APP2576 mice
Aβ plaques = experiment: Assay 14 transgenic mouse brain immunohistochemistry (plaque score); format: in vivo; conditions: APP2576 mice
From the text: Assay 14. Transgenic Mouse Brain Immunohistochemistry
The APP2576 transgenic mouse (Hsiao et al., 1996) as referred to in Assay 11 is utilized in this assay. The contralateral formalin-fixed mouse brain tissue is coronally cut. Sections (10 μm) are taken from the corresponding sites and treated with 80% formic acid for antigen retrieval. The primary antibody used is monoclonal antibody 1E8, which recognizes epitopes between residues 18 and 22 of Aβ (SmithKline Beecham, UK). Immunoreactivity is developed with secondary antibody linked to horseradish peroxidase (using a 3,39-diaminobenzidinechromagen) (Dako) and alkaline phosphatase (using 5-bromo-4-chloro 3-indoxyl phosphate and nitroblue tetrazolium chloride chromagen) (Dako). Plaque abundance per section is assessed by two operators blinded to treatment according to the following scale:
1=plaques present but very sparse
2=several plaques present
3=numerous plaques visible in restricted areas
4=plaques abundant and not restricted to any particular area.
Intermediate values eg 2.5 are assigned where applicable. Students ‘t’ test is used for comparisons between groups.

[3] = target: T2, A-beta 1-42 aggregates formed by precipitation with zinc (Homo sapiens, UniProt P05067); experiment: Assay 17 synthetic amyloid plaque disaggregation assay (thioflavin T); format: biochemical; conditions: for Assay 17 percentage disaggregation at 5 uM: 5 uM (printed as 5/%); for pEC50: Aβ1-42/Zn/ThT aggregates, 2 hours, 37 degrees
T2 construct: host or cells: chemically synthesised peptide
T2 sequence (P05067 672-713 limits assumed): as above
Experimental: Assay 17. Synthetic Amyloid Plaque Disaggregation Assay
This assay measures the ability of test compounds to dissolve aggregates of synthetic Alzheimer's A-beta 42 residue peptide formed by precipitation with zinc.
The synthetic plaque disaggregation assay is a thioflavin T fluorescence-based assay which measures the ability of a test compound to disaggregate synthetic aggregates generated by the incubation of Alzheimer's amyloid A-beta protein (Aβ) in the presence of zinc.
The 42 residue A-beta which is the form most prevalent in Alzheimer's amyloid plaques is precipitated by the addition of zinc salts to form a beta sheet conformational aggregate physicochemically congruent with the crystalline amyloid plaque cores. […] Solubilisation of the metal bound aggregates by a test compound will result in reduced fluorescence as the beta sheet conformation is lost. The activity of a compound in this assay is a combination of its metal chelating properties, solubility, hydrophobicity and structural elements which influence interaction with the amyloid mass.
The assay models the process by which a test compound is acting, either to compete for bound metals with Aβ or alternatively to displace metals by competitively binding at the metal binding site, resulting in Aβ precipitated by zinc, being solubilised, as an in vitro model of plaque disaggregation.
Aliquots of synthetic Aβ peptide are prepared for convenience. Aβ is dissolved in distilled H2O and peptide concentration is assessed by absorption at 214 nm against a validated standard curve. Abeta/Zn aggregates in the presence of solvent only (DMSO) and control vehicle (PBS) are included in each assay as negative controls. The test compounds were dissolved in DMSO to a concentration of 5 mM. Dilutions were made in DMSO as appropriate to 100 times the desired final concentration and added immediately to the A-beta aggregates.
A-beta 1-42 is incubated with ZnCl2 and Thioflavine T (ThT) in a molar ratio of (1:2:2) for 24 hours at 37 degrees on a rotating wheel in PBS pH 6.6. Following incubation, aggregates are incubated with test drug for a further 2 hours at 37 degrees with rotation. PBS blank, untreated aggregates and DMSO controls are included with each experiment. After 2 hour incubation, samples are measured for ThT fluorescence using an LS55 (Perkin Elmer) fluorimeter in a cuvette.
Data are generated in FL Winlab software (Perkin Elmer) and analysed using GraphPad Prism v4.0 software. Data are calculated as the average of multiple reads.
The two values together provide a measure of the efficiency of disaggregation.

[4] = Assay 3(d) test compound cytotoxicity (MTS); format: cell-based; conditions: BL6Jx129sv, mouse, primary cortical neuronal cultures, cortical neurons; for viability at 4 days, 1 µM: read-out: Assay 3(d) Cytotoxicity (% viable at 1 uM); for viability at 4 days, 10 µM: read-out: Assay 3(d) Cytotoxicity (% viable at 10 uM)
Experimental: Primary Cortical Neuronal Cultures
Cortical cultures were prepared as previously described (White et al., 1998). Embryonic day 14 BL6Jx129sv mouse cortices were removed, dissected free of meninges and dissociated in 0.025% (wt/vol) trypsin. Dissociated cells were plated in 48 well culture plates at a density of 2×10^6 cells/mL in MEM with 25% (vol/vol) FCS and 5% (vol/vol) HS and incubated at 37° C., 2 hrs. Media was then replaced with Neurobasal media (Invitrogen Life Technologies) and B27 supplements (Invitrogen Life Technologies). Cultures were maintained at 37° C. in 5% CO2. Prior to experimentation, the culture medium was replaced with Neurobasal media and B27 minus antioxidants (Invitrogen Life Technologies).
(a) MTS Assay for Cell Viability
Cell viability is determined using the MTS assay. Culture medium is replaced with fresh neurobasal medium plus B27 supplements minus antioxidants. 1/10 volume MTS solution (Cell Titre 96 Aqueous One, Promega Corporation) and incubated at 37° C., 2 hrs. 200 microlitre aliquots are measured with a spectrophotometer at 560 nm.
(d) Assay for Test Compound Cytoxicity
Neuronal cortical cells were cultured for five days as per Assay 2 in NB media and B27 supplement.
On day six the test compounds were added to the neuronal cell cultures in NB media and B27 supplement minus antioxidants.
Test compounds were dissolved in 100% DMSO to a concentration of 2.5 mM (10 mM if excess compound was weighed out per vial—then diluted to 2.5 mM). 2.5 mM stock solution was serially diluted 1 in 10 to give working solutions of 250 uM, 25 uM, 2.5 uM. Test compounds were not added directly to cells, instead they were added to a 48 well ‘Drug Plate’ as comprised below:
Preparation of “Drug Plate”:
• Well 1: 576 ul NB+B27 (no antioxidant)*+24 ul 2.5 uM test compound • Well 2: 576 ul NB+B27 (no antioxidant)+24 ul 25 uM test compound • Well 3: 576 ul NB+B27 (no antioxidant)+24 ul 250 uM test compound • Well 4: 576 ul NB+B27 (no antioxidant)+24 ul 2.5 uM test compound • Well 5: 576 ul NB+B27 (no antioxidant)+24 ul 25 uM test compound • Well 6: 576 ul NB+B27 (no antioxidant)+24 ul 250 uM test compound • Well 7: 576 ul NB+B27 (no antioxidant)+24 ul test compound diluent** • Well 8: 600 ul NB+B27 (no antioxidant)
The Drug Plate was incubated at 37° C. for 15 mins. 200 ul of each well was added in triplicate to the corresponding cell plate. The cell plate was incubated at 37° C., for 4 days, (2 compounds are tested on each plate of cells).
* NB media and B27 (no antioxidants),
** PBT diluent 10% DMSO in NB+B27 (no antioxidants)
On completion of the assay, 1/10 volume MTS was added per well of plate (ie 25 ul/250 ul). The plates were incubated at 37° C. for 2 hrs, and then absorbance was read at 560 nm.

**Q.** For `Br.O=c1c2c(Cl)cc(Cl)c(O)c2ncn1CC1CC1` [Compound 1076], which “Conc. in mouse plasma” value ([1]; 30 min after oral dosing at 30 mg/kg, single mouse) is on record?
**A.** 1593.61 ng/mL

**Q.** And the “Conc. in mouse plasma” value ([1]; 60 min after oral dosing at 30 mg/kg, single mouse)?
**A.** 1167.52 ng/mL and 2697.62 ng/mL

**Q.** And the “Assay 16 Mice plasma concentration” value ([1]; highest level found in mice (Up to), oral dosing 30 mg/kg described for PB 1075-1077)?
**A.** Up to 2698 ng/mL

**Q.** What about the concentration at 30 min ([1]; mouse, plasma, po, 30 mg/kg, 30 min after oral dosing at 30 mg/kg, single mouse, read-out: Conc. in mouse plasma) of the same compound?
**A.** 2330 ng/mL

**Q.** And the pIC50 (Aβ 1-42)?
**A.** 6.35

**Q.** What about the “Tg mice Insoluble Fraction: % change compared with vehicle alone control mice” value ([2]; insoluble Aβ) of the same compound?
**A.** −21% (insol)

**Q.** And the “Tg mice Soluble Fraction: % change compared with vehicle alone control mice” value ([2]; soluble Aβ)?
**A.** −24% (sol)

**Q.** And the “Plaques score: average count score per treatment group relative to the vehicle (sham) treated group” value (Aβ plaques)?
**A.** −29% (plaque)

**Q.** Which “Assay 17 percentage disaggregation at 5 uM” value [3] does the source give for `Br.O=c1c2c(Cl)cc(Cl)c(O)c2ncn1Nc1ccc(F)cc1F` [Compound 1100] here?
**A.** 42%

**Q.** What about the pEC50 [3] of the same compound?
**A.** 4.77

**Q.** What about the pIC50 (Aβ 1-42) of the same compound?
**A.** 6.38

**Q.** And the viability at 4 days, 1 µM [4]?
**A.** 100%

**Q.** What about the viability at 4 days, 10 µM [4] of the same compound?
**A.** 92%

**Q.** With `Br.O=c1c2c(Cl)cc(Cl)c(O)c2ncn1Cc1cccc(Cn2cnc3c(O)c(Cl)cc(Cl)c3c2=O)n1` [Compound 1101] as the compound, how does the “Assay 17 percentage disaggregation at 5 uM” value [3] read?
**A.** 45 5/%

**Q.** And the pEC50 [3]?
**A.** 4.93

**Q.** And the pIC50 (Aβ 1-42)?
**A.** > 5.39

**Q.** What about the viability at 4 days, 1 µM [4] of the same compound?
**A.** 89%

**Q.** What about the viability at 4 days, 10 µM [4] of the same compound?
**A.** 17%

**Q.** Which results are given for `CCN(CC)Cc1nc2c(O)c(Cl)cc(Cl)c2c(=O)[nH]1` [Compound 1128]?
**A.** disaggregation (rating in words) [3]: very good (A test compound able to achieve an IC50 at less than 20 μM and scoring greater than 40% disaggregation at 5 μM is considered ‘very good’); Assay 17 percentage disaggregation at 5 uM [3]: 41 5/%; pEC50 [3]: 4.88; pIC50 (Aβ 1-42): 6.47

**Q.** Which “Assay 17 percentage disaggregation at 5 uM” value [3] does the source give for `O=c1c2c(Cl)ccc(O)c2ncn1CC1CC1` [Compound 1132] here?
**A.** 16 5/%
